This test relates to CEM cells HIV-1 protection, formazan growth assay. Description: NCI AIDS Antiviral Assay. Particulars: for IC50: measured here: growth of uninfected CEM cells. The procedure, abridged:
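Soluble formazan readout of cell growth; CEM cells ± HIV-1; 5 drug concs. ≥50% protection → retest; ≥50% again = moderately active; reproducible 100% = confirmed active.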

In general, EC50 refers to the concentration needed to bring the measured effect to its halfway point. By IC50 is commonly meant the point on the concentration scale where inhibition reaches its midpoint. Lower therefore signals greater potency in that assay.

Activity calls are given as the source filed them.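 How the source made its calls: active means compounds giving half or more protection of infected cells from virus-caused growth loss, again on retest; inactive means the rest.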 Where a SMILES comes first, the peptide text is derived from it. The star is where a group is joined. Cbz = O=C(OCc1ccccc1)* Where only a bound is given, the exact number is not on record here.

Consider `C=C(C)CC1(O[Si](C)(C)C)C(=O)C(OCC)=C1OCC` (centres undefined), for which the EC50 is more than 200 µM and the IC50 was more than 200 µM.

For `C#Cc1cccc(N2C(=O)CC(=P(c3ccccc3)(c3ccccc3)c3ccccc3)C2=O)c1`, the EC50 was more than 11.2 µM and the IC50 was more than 11.2 µM.

On to `CC(C)Cc1nc(-c2cc3ccccc3[nH]2)c(CC(C)C)nc1-c1cc2ccccc2[nH]1`, for which the EC50 is more than 4.68 µM and the IC50 was more than 4.68 µM.

`CCOC(=O)/C(C#N)=C1\SS/C(=C(/C#N)C(=O)OCC)S1`: the EC50 is more than 200 µM and the IC50 is 19.5 µM.

For the compound `O=C(O)c1cc[c]([Sb](=[O])([OH])[OH])cc1[N+](=O)[O-]`, the EC50 was 10.2 µM and the IC50 came out at 398 µM.

On to `CN(C)CCN1C(=O)N(CCN(C)C)c2c3cc(O)ccc3nc3c([N+](=O)[O-])ccc1c23`, for which the EC50 was more than 200 µM and the IC50 was 2.34 µM.

Take `Cc1ccc(S(=O)(=O)O/N=C(/CC/C(=N\OS(=O)(=O)c2ccc(C)cc2)c2ccccc2)c2ccccc2)cc1`: the EC50 was more than 437 µM and the concentration for half-maximal inhibition (IC50) was more than 437 µM.

With `Cc1ccc(C)c(C2=C/C(=C/c3ccc(N(CCC#N)CCC#N)cc3)C(=O)O2)c1`, the EC50 was more than 9.55 µM and the IC50 was more than 9.55 µM.

In the case of `O=C1CC2C3C1N(c1ccc(Cl)cc1)C1(Nc4ccc(Cl)cc4)C(=O)CC(C31)N2c1ccc(Cl)cc1` (centres undefined), the EC50 is more than 200 µM and the IC50 was found to be 33.9 µM.

With `CC(=O)N(CCN)CCN`, the outcome was inactive.

Take `COc1ccc(Nc2nc3ccccc3nc2-c2cccs2)cc1`: the EC50 was more than 15.5 µM and the IC50 is more than 15.5 µM.

As to `Clc1ccc(/C=C/c2nc3ccccc3s2)cc1Cl`, the EC50 was more than 200 µM and the IC50 turned out to be 83.2 µM.

`O=C(O)C(CS)N=c1c2ccccc2n(O)c2ccccc12` (centres undefined): the result was inactive.

Turning to `CC1(C)C2C=C(CCN3CCOCC3)CC1C2` (centres undefined), the EC50 was more than 200 µM and the IC50 was more than 200 µM.

`Cc1c(O)c(OC2OC(CO)C(O)C(O)C2O)cc2c1CC[C@@H]1C2(C)C(=O)C[C@]2(C)[C@@H]([C@@](C)(O)C(O)CCC(C)(C)O)[C@H](O)C[C@@]12C` (some centres undefined): the EC50 was more than 200 µM and the IC50 was more than 200 µM.

On to `Cc1ccc([N+](=O)[O-])cc1/C(C#N)=C/c1ccccc1`, for which the EC50 is more than 200 µM and the IC50 was 33.1 µM.

As to `O=C(Nc1cccc(Cc2cccc(NC(=O)c3ccccc3)c2)c1)c1ccccc1`, the EC50 is more than 9.33 µM and the IC50 is more than 9.33 µM.

Consider `COc1cccc(/C=N/NC(=O)c2ccccc2[O-])c1[O-].[Cu+2].[OH3+]`, for which the EC50 was more than 200 µM and the half-inhibitory concentration (IC50) was more than 200 µM.

With `O=C(CCCl)NNC1=NCCN1`, the EC50 is more than 200 µM and the IC50 is more than 200 µM.

In the case of `O=C1N2Cc3c4ccc5c3CN3C(=O)N6Cc7c(ccc(c7CN1C6(c1ccccc1)C23c1ccccc1)OCCOCCNCCOCCO4)OCCOCCNCCOCCO5` (centres undefined), the EC50 is more than 6.03 µM and the IC50 is more than 6.03 µM.

With `O=C1CCCCC1CN(Cc1ccccc1)Cc1ccccc1` (centres undefined), the outcome was inactive.

As for `COc1ccc(C(=O)/C=C/c2ccc(OCC(=O)O)cc2)cc1`, the EC50 is more than 200 µM and the IC50 was 69.2 µM.

`O=[N+]([O-])c1ccc(/C=N/Nc2nnc3c4ccccc4c4ncccc4c3n2)o1`: the EC50 is more than 100 µM and the IC50 was more than 100 µM.

On to `CCOC(=O)CCC(NC(=O)C(CC(=O)OC)NC(=O)OCc1ccccc1)C(=O)NC(CC(=O)OC)C(=O)NC(CCC(=O)OCC)C(=O)NC(CC(=O)OC)C(=O)NC(CCC(=O)OCC)C(=O)NC(CC(=O)OC)C(=O)NC(CCC(=O)OCC)C(=O)NC(CC(=O)OC)C(=O)NC(CCC(=O)OCC)C(=O)NC(CC(=O)OCC)C(=O)OCC` (centres undefined) (Cbz-D(OMe)E(OEt)D(OMe)E(OEt)D(OMe)E(OEt)D(OMe)E(OEt)D(OMe)E(OEt)D(OEt)-OEt; configuration not given here), for which the EC50 is more than 50.1 µM and the IC50 was more than 50.1 µM.

Turning to `O=C(Nc1nc2ncn(CCO)c2c(=O)[nH]1)c1ccccc1`, the EC50 was more than 832 µM and the IC50 is more than 832 µM.

Consider `N[C@@H](CSSCCO)C(=O)O`, for which the EC50 was more than 200 µM and the IC50 was more than 200 µM.

As to `CCCCCC[N+](C)(C)Cc1ccc(C[N+](C)(C)CCCCCC)cc1`, the result was inactive.

`COc1cc(C2C(C(=O)Nc3cc(F)c(F)cc3F)=C(C)NC(C)=C2C(=O)Nc2cc(F)c(F)cc2F)ccc1O`: the EC50 was more than 32.4 µM and the half-maximal inhibitory concentration (IC50) is more than 32.4 µM.

With `NC(=O)C12CCC1C1CCCCC12N1CCOCC1` (centres undefined), the outcome was inactive.

For the compound `Cc1ccc(Nc2nc3c(s2)C(=O)c2ccccc2C3=O)cc1`, the EC50 was more than 16.2 µM and the half-maximal inhibitory concentration (IC50) was 6.17 µM.

For `COc1cc(COC(=O)N2CC=CC2C(=O)O)c([N+](=O)[O-])cc1OC` (centres undefined), the EC50 was more than 708 µM and the IC50 was more than 708 µM.

Turning to `CC1OC(n2cnc3c(N)nc(Cl)nc32)C(C)(O)C1O` (centres undefined), the result was inactive.

For `CCN(CC)C(=O)O/N=C/c1ccccc1`, the EC50 was more than 200 µM and the IC50 is more than 200 µM.

Consider `Nc1ccc(C(=O)NN2C(=O)C(Cl)C2c2cc(Br)cc(Br)c2O)cc1` (centres undefined), for which the EC50 was more than 200 µM and the IC50 was 15.5 µM.

For the compound `O=C1CC([C@H](NC(=O)OCc2ccccc2)C(=O)O)ON1` (some centres undefined), the outcome was inactive.

On to `C=C(Br)CNC(=O)Nc1ccccn1`, for which the EC50 is more than 200 µM and the IC50 was more than 200 µM.

`CC(=O)NNc1nc(C)c(C(=O)/C=C/c2ccc(NC(C)=O)cc2)s1`: the EC50 is more than 28.2 µM and the IC50 was more than 28.2 µM.

As to `Nc1ccccc1-c1nc2c(ccc3ccccc32)[nH]1`, the EC50 is more than 72.4 µM and the IC50 was 57.5 µM.

On to `CC/C(=C(\C#N)c1ccc(OCCN(CC)CC)cc1)c1ccc(OCCN(CC)CC)cc1`, for which the EC50 is more than 200 µM and the IC50 worked out at 1.86 µM.

As for `O=C1c2c(c3c4ccccc4n(COCCO)c3c3[nH]c4ccccc4c23)C(=O)N1Cc1ccccc1`, the EC50 is more than 15.8 µM and the IC50 amounted to 6.92 µM.

As to `O=C(O)C1=C(Cl)c2ccccc2S1(=O)=O`, the result was inactive.

For `Cn1c(C2CCCc3c2c2ccccc2n3C)cc2ccccc21` (centres undefined), the EC50 is more than 16.6 µM and the IC50 is more than 16.6 µM.

In the case of `CCOC(=O)CC1(N)CC2c3ccccc3OC(=O)C2C(=O)N1` (centres undefined), the EC50 is more than 200 µM and the IC50 is more than 200 µM.

For `COCCOCCOCCOCCOCCOCCOCCOCCOCCOCCOCCOCCOCCOCCOCCOCCOCC(=O)N(CCn1cnc2nc(NC(=O)c3ccccc3)[nH]c(=O)c21)CCn1cnc2nc(NC(=O)c3ccccc3)[nH]c(=O)c21`, the EC50 is 1.32 µM and the IC50 came out at 47.9 µM.

`COC(=O)C(=O)C(C(=O)C=C(C)C)C(=O)C(=O)Nc1ccc(Cl)cc1C` (centres undefined): the outcome was inactive.

With `CC(=O)Nc1c(S(=O)(=O)c2ccccc2)c(C)c(C)n1Cc1ccccc1`, the EC50 was more than 200 µM and the IC50 was 132 µM.

In the case of `Cc1ccc(NC(=O)C2C(=O)N(c3ccc(C)c(C)c3)C(=O)/C2=N/O)cc1C` (centres undefined), the EC50 is more than 19.1 µM and the IC50 was more than 19.1 µM.

As for `COC(=O)[C@@H](NC(=O)N(CCC#N)CCCN(C(=O)N[C@H](Cc1ccccc1)C(=O)OC)c1ccccc1)C(C)C`, the EC50 was more than 200 µM and the IC50 worked out at 87.1 µM.

Consider `CC1=CC(=O)N(n2c(Cc3ccccc3)n[nH]c2=O)C1=O`, for which the EC50 was more than 200 µM and the IC50 is more than 200 µM.

As for `O=C(n1c(=O)n(-c2ccc([N+](=O)[O-])cc2)c(=O)n1C(=O)C(Cl)(Cl)Cl)C(Cl)(Cl)Cl`, the EC50 was more than 200 µM and the IC50 is more than 200 µM.

In the case of `COC(=O)C1=C(C)C(=O)[C@]23C(CCCC[C@H]12)C(=O)[C@H](C(=O)OC)C3C` (some centres undefined), the EC50 was more than 200 µM and the IC50 was more than 200 µM.

For `O=c1[nH]cnc2c1ncn2[C@@H]1C[C@H]1CO`, the result was inactive.

As to `Nc1c(S(=O)(=O)O)cc2cc(S(=O)(=O)O)ccc2c1N=Nc1ccc(S(=O)(=O)c2ccc(N=Nc3c(N)c(S(=O)(=O)O)cc4cc(S(=O)(=O)O)ccc34)cc2)cc1`, the EC50 was more than 64.6 µM and the IC50 is more than 64.6 µM.

Consider `COc1ccccc1N1C(=O)C2c3[nH]c4ccccc4c3C3CCC(C(C)(C)C)CC3C2C1=O` (centres undefined), for which the EC50 is more than 1.2 µM and the IC50 was more than 1.2 µM.

Consider `CC(=O)n1c(=O)c2cc3c(=O)n(-c4cccc(C#N)c4)c(=O)c3cc2c1=O`, for which the outcome was inactive.

For the compound `CN(CCN1C(=O)c2cccc3cc([N+](=O)[O-])cc(c23)C1=O)CCN1C(=O)c2cccc3cc([N+](=O)[O-])cc(c23)C1=O`, the EC50 was more than 9.12 µM.

With `CCOC(=O)N(CCCCCCNC(c1ccccc1)S(=O)(=O)O)c1ccccc1` (centres undefined), the EC50 was more than 200 µM and the IC50 turned out to be 1.82 µM.

Consider `O=Cc1c(O)c2ccccc2[nH]c1=O`, for which the EC50 is more than 5.5 µM and the IC50 is more than 5.5 µM.

On to `COc1cccc2c1ccc1nonc12`, for which the EC50 is more than 129 µM and the IC50 was more than 129 µM.

Regarding `Cn1nc(-c2ccc3c(c2)OCO3)[n+]([O-])c2c(=O)n(C)c(=O)nc1-2`, the EC50 was more than 200 µM and the half-maximal inhibitory concentration (IC50) came to 0.38 µM.

Turning to `Cc1ccc2c(c1)NC(=S)N=S2(C)=O` (centres undefined), the EC50 is more than 158 µM and the IC50 came out at 93.3 µM.

In the case of `COc1ccc(/C=C/c2cc(OC)c(OC)c(OC)c2)cc1O`, the EC50 was more than 10 µM and the IC50 is 0.145 µM.

With `COC(=O)C1C(=O)CC2C(C(=O)OC)C(=O)CC12` (centres undefined), the EC50 is more than 234 µM and the IC50 stood at 105 µM.

For the compound `COc1nc(N)c2c3c([nH]c2c1C#N)C(C)(C)c1ccccc1N3C`, the EC50 is more than 30.2 µM and the IC50 came out at 29.5 µM.

For the compound `O=C1NC(=O)C2C(=O)NC(=O)C1C2Cc1ccco1` (centres undefined), the EC50 is more than 955 µM and the IC50 is more than 955 µM.

On to `CN(C)C=Nc1ccn(CCO)c(=O)n1`, for which the EC50 was more than 1200 µM and the IC50 was more than 1200 µM.

Turning to `CN=C(NCCCOC)c1ccc(NC(=O)c2ccc(C(=O)Nc3ccc(C(=NC)NCCCOC)cc3)c([N+](=O)[O-])c2)cc1`, the EC50 was more than 200 µM and the IC50 was found to be 19.1 µM.

For `CC(=O)N/N=C/c1ccc(N(C)C)cc1`, the EC50 was more than 200 µM and the 50% inhibitory concentration (IC50) is more than 200 µM.

(Values after PubChem BioAssay AID179 (DTP/NCI, 2004).)
